Experimental findings from patent publication EP4725941A1, “ARYLAMIDE DERIVATIVE HAVING ANTITUMOR ACTIVITY” (priority 2020, dated 2021) are described below.

pIC50: −log10 of the molar value. Where two headings read alike, the source gives them in different places.

The term pIC50 denotes the IC50 on a negative log10 scale, so that one unit is a factor of ten. The term microsomal CLint denotes a measure of how fast metabolising enzymes remove a compound, apart from limits set by blood flow. Read a low microsomal CLint as slow turnover.

The target in data set [1] is T1, MEK1 (Homo sapiens, UniProt Q02750).
T1 construct: purchased Thermo Fisher Scientific Inc. (MEK1, CRAF); Carna Biosciences, Inc. (ERK2)
Kind of data set: MEK1-inhibiting activity, fluorescent polarization method (CRAF/MEK1/ERK2 cascade, IMAP). The class given is biochemical. The method, then: The MEK1-inhibiting activity of the compounds listed in Table 3 below were evaluated by the fluorescent polarization method as described below.

The subject of data set [2] is NCI-H2122. Kind of data set: Cell proliferation-inhibiting activity (ATP in viable cells, CellTiter-Glo), NCI-H2122. Type of data set: cell-based, human. Conditions: read-out: NCI-H2122 IC50. (In general: ATP-based viability assays read luminescence as a measure of living cells.)
For data set [3], the system named is A549. Description: Cell proliferation-inhibiting activity (ATP in viable cells, CellTiter-Glo), A549. The class given is cell-based, human. Conditions: read-out: A549 IC50.
The target in data set [4] is T2, BRAF (Homo sapiens, UniProt P15056).
T2 construct: purchased Eurofins Genomics KK; (BRAF); Thermo Fisher Scientific Inc. (MEK1)
Description: BRAF-inhibiting activity, time-resolved fluorescence-fluorescence resonance energy transfer assay. The class given is biochemical. The method, then:
The BRAF-inhibiting activity of the compounds listed in Table 3 below was evaluated by the time-resolved fluorescence-fluorescence resonance energy transfer assay as described below.

The nature of data set [5]: Human liver microsome stability. The class given is in vitro ADME. Conditions: human liver microsomes, pH 7.4.
Where [6] appears, read: NCI-H2122, 96 h, human lung cancer cells, 4 days.
The mark [7] stands for this setting: A549, 96 h, human lung cancer cells, 4 days.
Where [8] appears, read: human lung cancer cells, 4 days.

T2 sequence (P15056 417-766 limits assumed): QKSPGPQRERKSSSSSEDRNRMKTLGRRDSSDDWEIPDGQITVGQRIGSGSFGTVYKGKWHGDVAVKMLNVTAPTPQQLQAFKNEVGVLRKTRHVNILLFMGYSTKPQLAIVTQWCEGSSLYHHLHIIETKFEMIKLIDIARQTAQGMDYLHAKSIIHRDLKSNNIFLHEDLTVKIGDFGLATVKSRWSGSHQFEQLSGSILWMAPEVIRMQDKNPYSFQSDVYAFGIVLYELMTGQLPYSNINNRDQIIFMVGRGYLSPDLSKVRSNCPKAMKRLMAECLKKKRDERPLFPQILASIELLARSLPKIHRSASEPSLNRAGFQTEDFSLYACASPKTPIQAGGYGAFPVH
T1 sequence (Q02750 whole entry): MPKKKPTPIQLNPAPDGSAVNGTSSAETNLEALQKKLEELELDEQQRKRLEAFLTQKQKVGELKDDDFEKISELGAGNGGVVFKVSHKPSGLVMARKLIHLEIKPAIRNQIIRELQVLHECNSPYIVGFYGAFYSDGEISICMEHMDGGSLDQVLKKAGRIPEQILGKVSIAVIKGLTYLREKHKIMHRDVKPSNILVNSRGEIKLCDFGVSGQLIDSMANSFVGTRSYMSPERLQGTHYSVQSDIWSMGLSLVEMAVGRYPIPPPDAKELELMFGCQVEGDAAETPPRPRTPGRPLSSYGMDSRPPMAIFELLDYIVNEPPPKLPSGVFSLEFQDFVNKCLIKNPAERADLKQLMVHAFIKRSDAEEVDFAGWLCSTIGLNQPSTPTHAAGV

On to `CC(O)CNS(=O)(=O)Nc1nccc(Cc2cc(C(N)=O)c(Nc3ccc(I)cc3F)c(F)c2F)c1F` (racemic) [Compound A-17, (+/-)-3,4-difluoro-5-[[3-fluoro-2-(2-hydroxypropylsulfamoylamino)pyridin-4-yl]methyl]-2-(2-fluoro-4-iodoanilino)benzamide], for which the pIC50 in data set [1] is 8.22; in data set [2] (setting [6]) it was 7.82; in data set [3] (setting [7]), 7.28; in data set [4] (Table 3; read-out: BRAF IC50) it was 8.40. Moreover, the microsomal CLint at 0.99 µM in data set [5] is 6 µL/min/mg.
As to `CNS(=O)(=O)Nc1nccc(Cc2cc(C(=O)NOC(C)C)c(Nc3ccc(I)cc3F)c(F)c2F)c1F` [Compound A-10, 3,4-Difluoro-2-(2-fluoro-4-iodoanilino)-5-[[3-fluoro-2-(methylsulfamoylamino)pyridin-4-yl]methyl]-N-propan-2-yloxybenzamide], the pIC50 is 8.30 in data set [1] (Table 3, read-out: MEK1 IC50); 9.70 in data set [2] (setting [6]); 10.00 in data set [3] (setting [7]); 8.15 in data set [4] (read-out: BRAF IC50; Table 3). This compound gave a microsomal CLint at 0.99 µM in data set [5] of 89 µL/min/mg.
On the same counts, the results for `COCCNS(=O)(=O)Nc1nccc(Cc2cc(C(=O)NOC(C)C)c(Nc3ccc(I)cc3F)c(F)c2F)c1F` [Compound A-11, 3,4-Difluoro-2-(2-fluoro-4-iodoanilino)-5-[[3-fluoro-2-(2-methoxyethylsulfamoylamino)pyridin-4-yl]methyl]-N-propan-2-yloxybenzamide] are 8.15, 9.00, 9.00, 8.05 and 128 µL/min/mg.
With `C=Cc1ccc(Nc2c(C(N)=O)cc(Cc3ccnc(NS(=O)(=O)NC)c3F)c(F)c2F)c(F)c1` [Compound A-19, 2-(4-Ethenyl-2-fluoroanilino)-3,4-difluoro-5-[[3-fluoro-2-(methylsulfamoylamino)pyridin-4-yl]methyl]benzamide], the pIC50 in data set [1] (Table 3, read-out: MEK1 IC50) was 7.52; in data set [2] (Homo sapiens, NCI-H2122, 96 h), 8.30; in data set [3] (Homo sapiens, A549, 96 h) it was 8.22; in data set [4] (Table 3; read-out: BRAF IC50), 8.52. This compound returned a microsomal CLint at 0.99 µM in data set [5] of 35 µL/min/mg.
On the same counts, the results for `C#Cc1ccc(Nc2c(C(N)=O)cc(Cc3ccnc(NS(=O)(=O)NCCC)c3F)c(F)c2F)c(F)c1` [Compound A-20, 2-(4-ethynyl-2-fluoroanilino)-3,4-difluoro-5-[[3-fluoro-2-(propylsulfamoylamino)pyridin-4-yl]methyl]benzamide] are 7.64, 8.22, 8.15, 8.70 and 14 µL/min/mg.
Consider `NC(=O)c1cc(Cc2ccnc(NS(=O)(=O)NCC3COC3)c2F)c(F)c(F)c1Nc1ccc(I)cc1F` [Compound A-21, 3,4-difluoro-2-(2-fluoro-4-iodoanilino)-5-[[3-fluoro-2-(oxetan-3-ylmethylsulfamoylamino)pyridin-4-yl]methyl]benzamide], for which the pIC50 is 8.30 in data set [1] (Table 3, read-out: MEK1 IC50); 7.85 in data set [2] (setting [6]); 7.51 in data set [3] (setting [7]); 8.40 in data set [4] (read-out: BRAF IC50; Table 3). In addition, the microsomal CLint at 0.99 µM in data set [5] stood at 4 µL/min/mg.
Consider `NC(=O)c1cc(Cc2ccnc(NS(=O)(=O)NC3C4COCC43)c2F)c(F)c(F)c1Nc1ccc(I)cc1F` (stereo not drawn) [Compound A-22, 3,4-Difluoro-2-(2-fluoro-4-iodoanilino)-5-[[3-fluoro-2-(3-oxabicyclo[3. 1.0]hexan-6-ylsulfamoylamino)pyridin-4-yl]methyl]benzamide], for which the pIC50 in data set [1] (Table 3, read-out: MEK1 IC50) is 8.22; in data set [2] (setting [8]), 8.00; in data set [3] (setting [8]), 7.51; in data set [4] (Table 3; read-out: BRAF IC50), 8.70.
For `CC1(NS(=O)(=O)Nc2nccc(Cc3cc(C(N)=O)c(Nc4ccc(I)cc4F)c(F)c3F)c2F)CC1` [Compound A-23, 3,4-Difluoro-2-(2-fluoro-4-iodoanilino)-5-[[3-fluoro-2-[(1-methylcyclopropyl)sulfamoylamino]pyridin-4-yl]methyl]benzamide], the pIC50 in data set [1] (Table 3, read-out: MEK1 IC50) was 7.46; in data set [2] (setting [6]), 9.00; in data set [3] (setting [7]), 8.30; in data set [4] (read-out: BRAF IC50; Table 3), 8.30. Besides, the microsomal CLint at 0.99 µM in data set [5] was less than 1 µL/min/mg.
As to `C#Cc1ccc(Nc2c(C(N)=O)cc(Cc3ccnc(NS(=O)(=O)NC)c3F)c(F)c2F)c(F)c1` [Compound A-26, 2-(4-Ethynyl-2-fluoroanilino)-3,4-difluoro-5-[[3-fluoro-2-(methylsulfamoylamino)pyridin-4-yl]methyl]benzamide], the negative logarithm of the IC50 (pIC50) is 8.30 in data set [1] (Table 3, read-out: MEK1 IC50); 8.70 in data set [2] (Homo sapiens, NCI-H2122, 96 h); 8.15 in data set [3] (Homo sapiens, A549, 96 h); 8.05 in data set [4] (Table 3; read-out: BRAF IC50). This compound gave a microsomal CLint at 0.99 µM in data set [5] of 13 µL/min/mg.
For `CNS(=O)(=O)Nc1nccc(Cc2cc(C(N)=O)c(Nc3ccc(Br)cc3F)c(F)c2F)c1F` [Compound A-27, 2-(4-bromo-2-fluoroanilino)-3,4-difluoro-5-[[3-fluoro-2-(methylsulfamoylamino)pyridin-4-yl]methyl]benzamide], the pIC50 in data set [1] (Table 3, read-out: MEK1 IC50) is 7.49; in data set [2] (setting [6]), 8.00; in data set [3] (setting [7]), 7.62; in data set [4] (read-out: BRAF IC50; Table 3), 8.15. This compound also registered a microsomal CLint at 0.99 µM in data set [5] of 4 µL/min/mg.
On the same counts, the results for `NC(=O)c1cc(Cc2ccnc(NS(=O)(=O)NC34CC(C3)C4)c2F)c(F)c(F)c1Nc1ccc(I)cc1F` [Compound A-28, 5-[[2-(1-Bicyclo[1.1.1]pentanylsulfamoylamino)-3-fluoropyridin-4-yl]methyl]-3,4-difluoro-2-(2-fluoro-4-iodoanilino)benzamide] are 7.89, 8.70, 8.30, 8.05 and 11 µL/min/mg.
Take `NC(=O)c1cc(Cc2ccnc(NS(=O)(=O)NC3CCOCC3)c2F)c(F)c(F)c1Nc1ccc(I)cc1F` [Compound A-29]: the pIC50 is 7.85 in data set [1] (Table 3, read-out: MEK1 IC50); 8.22 in data set [2] (setting [6]); 7.55 in data set [3] (setting [7]); 7.96 in data set [4] (Table 3; read-out: BRAF IC50). Further, the microsomal CLint at 0.99 µM in data set [5] was determined as 18 µL/min/mg.
For the compound `NC(=O)c1cc(Cc2ccnc(NS(=O)(=O)NC3CCC3)c2F)c(F)c(F)c1Nc1ccc(I)cc1F` [Compound A-32, 5-[[2-(Cyclobutylsulfamoylamino)-3-fluoropyridin-4-yl]methyl]-3,4-dif luoro-2-(2-fluoro-4-iodoanilino)benzamide], the pIC50 in data set [1] (Table 3, read-out: MEK1 IC50) was 7.60; in data set [2] (setting [6]) it was 8.30; in data set [3] (setting [7]), 8.15; in data set [4] (read-out: BRAF IC50; Table 3), 8.22. In data set [5], the microsomal CLint at 0.99 µM was 19 µL/min/mg.
Regarding `CCS(=O)(=O)Nc1nccc(Cc2cc(C(N)=O)c(Nc3ccc(I)cc3F)c(F)c2F)c1F` [Compound A-38, 5-[[2-(Ethylsulfonylamino)-3-fluoropyridin-4-yl]methyl]-3,4-difluoro-2-(2-fluoro-4-iodoanilino)benzamide], the pIC50 in data set [1] (Table 3, read-out: MEK1 IC50) was 7.80; in data set [2] (setting [6]), 7.82; in data set [3] (setting [7]), 7.18; in data set [4] (read-out: BRAF IC50; Table 3) it was 8.52. Further, the microsomal CLint at 0.99 µM in data set [5] amounted to 17 µL/min/mg.
As to `CCCNS(=O)(=O)Nc1nccc(Cc2cc(C(=O)NOCCO)c(Nc3ccc(I)cc3F)c(F)c2F)c1F` [Compound A-45, 3,4-Difluoro-2-(2-fluoro-4-iodoanilino)-5-[[3-fluoro-2-(propylsulfamoylamino)pyridin-4-yl]methyl]-N-(2-hydroxyethoxy)benzamide], the pIC50 in data set [1] (Table 3, read-out: MEK1 IC50) was 8.70; in data set [2] (setting [6]), 9.00; in data set [3] (setting [7]), 8.30; in data set [4] (read-out: BRAF IC50; Table 3), 8.22.
Regarding `CCCS(=O)(=O)Nc1nccc(Cc2cc(C(N)=O)c(Nc3ccc(I)cc3F)c(F)c2F)c1F` [Compound B-8], the negative logarithm of the IC50 (pIC50) was 7.33 in data set [1] (Table 3, read-out: MEK1 IC50); 7.85 in data set [2] (setting [6]); 7.02 in data set [3] (setting [7]); 8.15 in data set [4] (read-out: BRAF IC50; Table 3). This compound also yielded a microsomal CLint at 0.99 µM in data set [5] of 24 µL/min/mg.
The matching figures for `NC(=O)c1cc(Cc2ccnc(NS(=O)(=O)NCCO)c2F)c(F)c(F)c1Nc1ccc(I)cc1F` [Compound B-9, 3,4-Difluoro-5-[[3-fluoro-2-(2-hydroxyethylsulfamoylamino)pyridin-4-yl]methyl]-2-(2-fluoro-4-iodoanilino)benzamide]: 8.70, 8.15, 8.00, 8.40 and 11 µL/min/mg.
On to `COCCNS(=O)(=O)Nc1cc(Cc2cc(C(N)=O)c(Nc3ccc(I)cc3F)c(F)c2F)ccn1` [Compound C-2, 3,4-Difluoro-2-(2-fluoro-4-iodoanilino)-5-[[2-(2-methoxyethylsulfamoylamino)pyridin-4-yl]methyl]benzamide], for which the pIC50 was 6.98 in data set [1] (Table 3, read-out: MEK1 IC50); 8.15 in data set [2] (setting [6]); 7.80 in data set [3] (setting [7]); 8.70 in data set [4] (read-out: BRAF IC50; Table 3). This compound gave a microsomal CLint at 0.99 µM in data set [5] of 17 µL/min/mg.
As to `CNS(=O)(=O)Nc1cc(Cc2cc(C(N)=O)c(Nc3ccc(I)cc3F)c(F)c2F)ccn1` [Compound C-3, 3,4-difluoro-2-(2-fluoro-4-iodoanilino)-5-[[2-(methylsulfamoylamino)pyridin-4-yl]methyl]benzamide], the pIC50 in data set [1] (Table 3, read-out: MEK1 IC50) was 7.92; in data set [2] (setting [6]) it was 9.40; in data set [3] (setting [7]), 9.00; in data set [4] (read-out: BRAF IC50; Table 3), 8.52. The microsomal CLint at 0.99 µM in data set [5] was 9 µL/min/mg.
